For one compound, logKi, IC50 and Activity results are on record in ChEMBL document CHEMBL1156482, “Molecular mechanism of action of monocyclam versus bicyclam non-peptide antagonists in the CXCR4 chemokine receptor” (J Biol Chem, 2007).

Assay [1] deals with C-X-C chemokine receptor type 4 (Homo sapiens), P61073 [I259A]. The following applies: COS-7.
The subject of assay [2] is Human immunodeficiency virus 1. The assay is described as follows: Antiviral activity against HIV1 NDK infected in U87.CD4 cells expressing human CXCR4 H281A mutant. The assay is classed as functional, organism-based. The following applies: Human immunodeficiency virus 1, NDK.
In assay [3] the test system is Human immunodeficiency virus 1. The assay is described as follows: Antiviral activity against HIV1 clinical isolate 10 infected in U87.CD4 cells expressing human CXCR4 D171N mutant. Type of assay: functional, organism-based. The conditions noted are these: Human immunodeficiency virus 1, U87.CD4.
Assay [4] deals with Human immunodeficiency virus 1. The assay is described as follows: Antiviral activity against HIV1 NL43 infected in U87.CD4 cells expressing human CXCR4 E288A mutant. The assay is classed as functional, organism-based.
In assay [5] the test system is Human immunodeficiency virus 1. The assay is described as follows: Antiviral activity against HIV1 NL43 infected in U87.CD4 cells expressing human CXCR4 H281A mutant. Type of assay: functional, organism-based. The following applies: Human immunodeficiency virus 1, NL43, U87.CD4.
Assay [6] concerns Human immunodeficiency virus 1. In words: Antiviral activity against HIV1 clinical isolate 10 infected U87.CD4 cells expressing human CXCR4 E288A mutant. The assay is classed as functional, organism-based. The following applies: Human immunodeficiency virus 1, U87.CD4.
In assay [7] the test system is Human immunodeficiency virus 1. The assay is described as follows: Antiviral activity against HIV1 NL43 infected in U87.CD4 cells expressing human CXCR4 D171N/D262N mutant. The assay is classed as functional, organism-based.
The subject of assay [8] is Human immunodeficiency virus 1. In words: Antiviral activity against HIV1 NDK infected in U87.CD4 cells expressing human wild type CXCR4. The assay is classed as functional, organism-based. The conditions noted are these: Human immunodeficiency virus 1, NDK.
For assay [9], the system named is Human immunodeficiency virus 1. In words: Antiviral activity against HIV1 clinical isolate 10 infected in U87.CD4 cells expressing human wild type CXCR4. The assay is classed as functional, organism-based. The conditions noted are these: Human immunodeficiency virus 1, U87.CD4.
Assay [10] relates to C-X-C chemokine receptor type 4 (Homo sapiens), P61073 [D171N]. The assay is described as follows: Displacement of [125I]12G5 antibody from transmembrane domain 4 of human CXCR4 D171N mutant expressed in COS7 cells. The following applies: COS-7. Type of assay: cell-based. For orientation: Loss of bound radioactivity is the signal in a displacement assay; it reports binding, not function.
C-X-C chemokine receptor type 4 (Homo sapiens), P61073 [D171N], sequence (P61073 whole entry D171N, the tested form may be a part): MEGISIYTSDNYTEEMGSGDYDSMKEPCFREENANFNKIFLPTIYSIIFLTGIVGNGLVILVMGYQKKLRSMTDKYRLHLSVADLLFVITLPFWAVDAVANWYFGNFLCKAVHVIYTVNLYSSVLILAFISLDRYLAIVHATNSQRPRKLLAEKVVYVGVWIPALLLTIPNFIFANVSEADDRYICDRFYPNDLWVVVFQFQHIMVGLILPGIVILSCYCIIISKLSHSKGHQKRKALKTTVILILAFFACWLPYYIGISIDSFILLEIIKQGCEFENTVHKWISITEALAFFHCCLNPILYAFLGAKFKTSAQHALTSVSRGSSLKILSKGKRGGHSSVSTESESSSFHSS

The subject of assay [11] is Human immunodeficiency virus 1. In words: Antiviral activity against HIV1 clinical isolate 10 infected in U87.CD4 cells expressing human CXCR4 D262N mutant. The following applies: Human immunodeficiency virus 1, U87.CD4. Type of assay: functional, organism-based.
Assay [12] relates to C-X-C chemokine receptor type 4 (Homo sapiens), P61073 [H281A]. In words: Antagonist activity at human CXCR4 H281A mutant expressed in U87.CD4 cells assessed as inhibition of CXCL12-induced calcium mobilization. The assay is classed as functional, cell-based. A general note: A change in cytosolic calcium serves as a functional read-out for many receptors and channels.
C-X-C chemokine receptor type 4 (Homo sapiens), P61073 [H281A], sequence (P61073 whole entry H281A): as the sequence (P61073 whole entry D171N, the tested form may be a part) above, with N171D, H281A counted along it
For assay [13], the system named is Human immunodeficiency virus 1. In words: Antiviral activity against HIV1 NDK infected in U87.CD4 cells expressing human CXCR4 D171N mutant. Type of assay: functional, organism-based. The following applies: Human immunodeficiency virus 1, NDK.
In assay [14] the test system is Human immunodeficiency virus 1. In words: Antiviral activity against HIV1 clinical isolate 10 infected in U87.CD4 cells expressing human CXCR4 D171ND262N mutant. The conditions noted are these: Human immunodeficiency virus 1, U87.CD4. Type of assay: functional, organism-based.
For assay [15], the system named is Human immunodeficiency virus 1. In words: Antiviral activity against HIV1 NDK infected in U87.CD4 cells expressing human CXCR4 D171ND262N mutant. Type of assay: functional, organism-based. The following applies: Human immunodeficiency virus 1, NDK.
Assay [16] relates to Human immunodeficiency virus 1. The assay is described as follows: Antiviral activity against HIV1 NL43 infected in U87.CD4 cells expressing human wild type CXCR4. The assay is classed as functional, organism-based. The following applies: Human immunodeficiency virus 1, NL43, U87.CD4.
Assay [17] concerns Human immunodeficiency virus 1. In words: Antiviral activity against HIV1 clinical isolate 10 infected in U87.CD4 cells expressing human CXCR4 H281A mutant. Type of assay: functional, organism-based. The conditions noted are these: Human immunodeficiency virus 1, U87.CD4.
For assay [18], the system named is Human immunodeficiency virus 1. In words: Antiviral activity against HIV1 NL43 infected in U87.CD4 cells expressing human CXCR4 D262N mutant. The conditions noted are these: Human immunodeficiency virus 1, NL43, U87.CD4. The assay is classed as functional, organism-based.
Assay [19] concerns Human immunodeficiency virus 1. In words: Antiviral activity against HIV1 NDK infected in U87.CD4 cells expressing human CXCR4 D262N mutant. The assay is classed as functional, organism-based. The following applies: Human immunodeficiency virus 1, NDK.
Assay [20] has as its system Human immunodeficiency virus 1. In words: Antiviral activity against HIV1 NL43 infected in U87.CD4 cells expressing human CXCR4 D171N mutant. The assay is classed as functional, organism-based. The following applies: Human immunodeficiency virus 1, NL43, U87.CD4.
The subject of assay [21] is Human immunodeficiency virus 1. The assay is described as follows: Antiviral activity against HIV1 NDK infected in U87.CD4 cells expressing human CXCR4 E288A mutant. Type of assay: functional, organism-based. The following applies: Human immunodeficiency virus 1, NDK.
Assay [22] concerns C-X-C chemokine receptor type 4 (Homo sapiens), P61073 [H113A]. In words: Displacement of [125I]12G5 antibody from transmembrane domain 3 of human CXCR4 H113A mutant expressed in COS7 cells. Type of assay: cell-based. The conditions noted are these: COS-7.
C-X-C chemokine receptor type 4 (Homo sapiens), P61073 [H113A], sequence (P61073 whole entry H113A, the tested form may be a part): as the sequence (P61073 whole entry D171N, the tested form may be a part) above, with H113A, N171D counted along it

Activity calls are given as the source filed them. The rule behind the calls is not given here. Some results are limits rather than exact numbers.

C-X-C chemokine receptor type 4 (Homo sapiens), P61073 [I259A], sequence (P61073 whole entry I259A): as the sequence (P61073 whole entry D171N, the tested form may be a part) above, with N171D, I259A counted along it

Broadly, the IC50 is the concentration at which inhibition is half-maximal. Read a low IC50 as greater potency. `c1cc(CN2CCCNCCNCCCNCC2)ccc1CN1CCCNCCNCCCNCC1` [PLERIXAFOR]: the logKi was -5.81 in assay [1], -4.87 in [10] and -5.71 in assay [22]. Besides, the IC50 was under 0.0019 µM in assay [2]; 0.019 µM in assay [3]; under 0.0019 µM in [5]; over 0.121 µM in assay [6]; 0.0076 µM in [8]; 0.003 µM in assay [9]. For the same compound, the concentration for half-maximal inhibition (IC50) is 2.54 µM in assay [11]; 0.017 µM in assay [13]; 2.69 µM in assay [14]; over 3 µM in assay [15]; 0.014 µM in assay [16]; 0.0024 µM in assay [17]. The IC50 in [18] is over 0.6 µM; in assay [19], over 3 µM; in assay [20], 0.046 µM; in assay [21], over 6 µM. Also, the result in assay [4] and in assay [7] was inactive. The result in assay [12] was Active.
